From BindingDB's records for doi:10.1021/jm00063a004 (Cnrs-Cercoa, 1993) come the findings set out here.

The experiment concerns the target Trypsin (Sus scrofa) (UniProt P00761). Put plainly: Apparent binding constant against porcine trypsin.

Structures are written as SMILES.

Trypsin (Sus scrofa), sequence (P00761 whole entry, looked up): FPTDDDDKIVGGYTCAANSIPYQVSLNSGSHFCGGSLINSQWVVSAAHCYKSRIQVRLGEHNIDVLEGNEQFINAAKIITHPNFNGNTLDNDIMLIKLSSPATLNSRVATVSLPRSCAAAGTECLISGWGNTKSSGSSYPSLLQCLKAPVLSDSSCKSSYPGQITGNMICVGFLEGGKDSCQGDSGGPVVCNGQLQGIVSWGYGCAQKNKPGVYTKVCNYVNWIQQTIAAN

For the molecule `N=C(N)NCCCC1NC(=O)CNC(=O)c2cc(ccc2CBr)NC1=O` (stereo unspecified) [N-[3-(11-Bromomethyl-3,6,9-trioxo-2,5,8-triaza-bicyclo[8.3.1]tetradeca-1(13),10(14),11-trien-4-yl)-propyl]-guanidine], the Ki worked out at 20 µM.
